Laboratory results published in patent US20190269705A1, “METHODS AND MATERIALS FOR TREATING GRAFT VERSUS HOST DISEASE” (Regents of the University of Minnesota, priority 2017, published 2019).
“Also recorded” adds a separate entry of the source.

Legend:
Th1 cells = experiment: CD4 T cells in Th1 skewing conditions, flow cytometry
Th17 cells [1] = experiment: 3H-2-deoxyglucose uptake and ECAR, Th17; format: cell-based, mouse
Procedure: Glucose uptake assays were performed as described elsewhere (see, e.g., Macintyre et al., 2014 Cell Metab. 20(1):61-72). Naïve CD4+ T cells were differentiated into Th1 and Th17 cells, in triplicate, in the presence or absence of CB839 over 5 days and spun down after reisolation using CD4 kit as previously described. Cells were washed 2× in PBS, counted, then rested in 1 mL Kreb's Ringers HEPES (KRH) for 10 minutes. Cells were spun and resuspended to 5×10^5 cells/50 uL KRH for glucose uptake assay. Briefly, cells were […]. Cells incubated for 10 minutes at 37° C. Immediately after incubation, reaction was quenched with 200 μM phloretin (Calbiochem, Cat #: 524488). Cells were spun, washed, and then resuspended in scint fluid for counting on Beckman-Coulter scintillation counter. Pathway analysis of altered metabolites was performed using Metaboanalyst 3.0 (metaboanalyst. ca/faces/home.xhtml).
Experiments were carried out on Agilent Seahorse XF96 bioanalyzer (Agilent). Briefly, wild type CD4+ cells were isolated as previous and activated for 3 days on CD3/CD28 as previously described, or skewed to Th1 and Th17 subsets as described above. T cells were spun onto XF96 Cell-Tak (BD Bioscience, Cat #: 354240) coated plates and rested in Seahorse XF RPMI 1640 media supplemented with glutamine, sodium pyruvate, and glucose. For immediate metabolic response, CB839 and UK5099 were injected separately or in combination, and OCR and ECAR measured.
Glucose uptake assays were performed as previously described (Macintyre et al.,2014). Naïve CD4+ T cells were differentiated into Th1 and Th17 cells, in triplicate, in the presence or absence of CB839 over five days and spun down after reisolation using CD4 kit as previously described. At day 3 and 5, cells were removed, washed twice in PBS, counted, then rested in 1 mL Kreb's Ringers HEPES (KRH) for at least 10 minutes. Cells were spun and resuspended to 5×10^5 cells/50 μL KRH for glucose uptake assay. Briefly, 3H-2-deoxyglucose was suspended in KRH bubble layered in oil, and cells were added to this bubble. Cells were incubated for 10 minutes at 37° C. Immediately after incubation, reaction was quenched with 200 μM phloretin (Calbiochem, Cat #: 524488). Cells were spun, washed, and then resuspended in scintilation fluid for counting on Beckman-Coulter scintillation counter (3H, 1 min/sample read).
Experiments were carried out on Agilent Seahorse XF96 bioanalyzer (Agilent). Briefly, wild type CD4+ cells were isolated as previous and activated for 3 days on αCD3/CD28 coated plates as previously described, or skewed to Th1 and Th17 subsets as described above. T cells were isolated and spun onto XF96 Cell-Tak (BD Bioscience, Cat #: 354240) coated plates and rested in Seahorse XF RPMI 1640 media supplemented with glutamine, sodium pyruvate, and glucose. For immediate metabolic response, 1 μM CB839 and 5 μM UK5099 (Cat #: PZ0160-5MG) were injected separately or in combination, and OCR and ECAR measured. For activation response, 1 uM CB839 was injected into IL-7 maintained naïve CD4+ T cells in seahorse medium and allowed to incubate for 20 minutes, followed by soluble αCD3/CD28 injection.

Th17 cells [2] = experiment: ATAC-Seq chromatin accessibility, Th17; format: cell-based, mouse; conditions: Th17, 500 nM CB839, day 5
Procedure: ATAC-Seq: Crude nuclei pellets were isolated as described elsewhere (see, e.g., Buenrostro et al., 2013 Nat Meth. 10(12):1213-1218) with modifications. Briefly, naïve CD4 T cells were skewed to Th1 and Th17 subsets in vitro with vehicle or in the presence of 500 nM CB839. At Day 5, T cells were re-isolated for CD4+ cells using Miltenyi CD4+ negative selection kit (Cat #: 130-104-454). 1×10^5 cells were removed for nuclei extraction in ATAC-Seq lysing buffer. Cells were exposed to Tn5+ adaptor proteins from Nextera DNA for 30 min at 37° C. and immediately placed on ice. Transposed eluate was amplified via PCR using Nextera DNA preparation kit (Illumina, Cat #: FC-121-1030), NEBNext High-fidelity 2× PCR mix (New England Labs, Cat #: M0541), and multiplexed (Illumina, Cat #: FC-121-1011). Samples were purified using Zymo DNA cleanup kit (Cat #: D4011). QC of samples was run on bioanalyzer before being sent for sequencing. RNA-Seq: Th1 and Th17 cells skewed with or without CB839 were isolated as previously described and total RNA extracted (Qiagen RNEasy Mini kit, Cat #: 74104). RNA was sent to VANTAGE core at Vanderbilt University and sequenced on HiSeq 2500. n=3 for each sample was analyzed. Samples were analyzed using the R program DESeq2. GSEA was performed using MSigDB. […]

[3] = Th17, day 5, listed as GLS inhibitor

## O=C(Cc1cccc(OC(F)(F)F)c1)Nc1ccc(CCCCc2nnc(NC(=O)Cc3ccccn3)s2)nn1 [CB839]
Th1 cells; Th1
  Myc protein: modestly increased Myc
Th1 cells; Th1, Day 3
  H3K27 tri-methylation, initially: increased H3K27 tri-methylation
Th1 cells; Th1, after three days in culture
  proliferation: impaired proliferation
Th1 cells; Th1, day 5
  ROS (DCFDA): ROS increased
  expression of KLRG1 and PD1: increased expression of KLRG1 and PD1
Th1 cells; Th1, day 5, normalized to total H3
  global H3K27 trimethylation: decreased
Th1 cells; Th1, day 5, with IL2
  phospho-S6: increased phosphor-S6; also recorded: increased phospho-S6
Th1 cells; Th1, day 5, listed as CD839
  ROS (DCFDA): increased ROS
Th1 cells; Th1, day five
  global H3K4 trimethylation: decreased; also recorded: reduced
  proliferation: partially recovered proliferation by day five
  total rRNA levels per cell: increased
Th1 cells; Th1 skewing conditions, no IL2
  H3K27 methylation in the absence of IL2: hypermethylated H3K27
Th1 cells; Th1 skewing, 5 days, CB839 vs vehicle
  Th1 cytokine production and differentiation: increased; also recorded: appeared to increase Th1 cytokine secretion
Th1 cells; under Th1 conditions
  induction of Treg (Foxp3): failed to do so
Th17 cells [1]; Th17, day 5
  glucose uptake: decreased
  media acidification (ECAR, glycolytic flux): decreased
Th17 cells [1]; [3]
  glucose uptake: remained impaired
  media acidification (ECAR, glycolytic flux): remained impaired
Th17 cells [1]; Th17, day three
  glucose uptake: reduced
Th17 cells [2]
  genes with regions of altered chromatin accessibility: more genes with regions of reduced accessibility
